Results reported in patent US6521776B2, “Immunological adjuvant compounds compositions and methods of use thereof” (Eisai Company, Limited, priority 2000, dated 2003).
pEC50: −log10 of the molar value. Read-outs that look alike come from different tables or passages of the source.

Experiments:
TNF-α = assay: Induction of cytokines in vitro: TNF-α release in human whole blood (ELISA); type: cell-based; details: read-out: TNFa Stimulation Value
Protocol: The ability to trigger a stimulatory response in macrophages is likely a necessary characteristic of molecules with imunoadjuvant properties. Therefore, the ability of compounds to stimulate release of TNF-α and other cytokines from immune cells is tested as an indication of their ability to stimulate an immune response, which may result in adjuvant activity.
The most readily available human system to test compound activity on monocytes/macrophages is in whole blood. Various concentrations of compounds of the invention were added as 10×stocks in 50 μl of 5% dextrose followed by 50 μl of 5% dextrose into 400 μl of heparinized whole blood obtained from normal volunteers (18-51 years old; 110-230 lb) into the wells of plastic assay plates, for a total volume of 500 μl/well (final concentration of whole blood was 80%). The 10×stocks were made by dissolving compounds to 1 mM in water and sonicating them for 2 minutes in an ice bath. The compounds were then brought to 10× in 5% dextrose. After a 3-hour incubation with gentle shaking at 37° C. in a 5% CO2 atmosphere, the assay plates were centrifuged at 1000×g for 10 minutes at 4° C. and plasma was drawn off and frozen at −80° C. Plasma samples were analyzed for TNF-α by ELISA (R & D Systems, Minneapolis, Minn.). Each assay point was tested in triplicate.
The stimulatory value is the compound concentration needed to stimulate TNF-α release equal to half the release obtained from the same whole blood sample with 10 ng/ml of LPS.

[1] = system: tetanus toxoid-specific IgG; set-up: species or system Balb/c mice; details: mouse, in vivo, sc

| Compound | pEC50 (TNF-α; compound concentration needed to stimulate TNF-α release equal to half the release obtained with 10 ng/ml LPS, 80% heparinized human whole blood, 3-hour incubation, 37° C.) | Mean concentration of tetanus toxoid-specific IgG (6 mice/group) [1] [µg/mL] | pEC50 (TNF-α; Homo sapiens, 3 h) |
| --- | --- | --- | --- |
| CCCCCCCCCCCCC/C=C/[C@@H](OC(=O)CCCCCCCCCCC)[C@H](COP(=O)(O)OCCNC(=O)NCCOP(=O)(O)OC[C@H](NC(=O)CCCCCCCCCCCCC)[C@@H](/C=C/CCCCCCCCCCCCC)OC(=O)CCCCCCCCCCC)NC(=O)CCCCCCCCCCCCC (single isomer, unassigned) [ER-805270] | < 5.00 | – | – |
| CCCCCCCCCCCCCC(=O)N[C@@H](COP(=O)([O-])OCCNC(=O)NCCOP(=O)([O-])OC[C@H](NC(=O)CCCCCCCCCCCCC)[C@H](CCCCCCCCCCC)OC(=O)CCCCCCCCCCC)[C@H](CCCCCCCCCCC)OC(=O)CCCCCCCCCCC.[Na+].[Na+] [ER-804874] | – | 5640 | 8.05 |
| CCCCCCCCCCCCC/C=C/[C@@H](OC(=O)CCCCCCCCCCC)[C@H](COP(=O)([O-])OCCNC(=O)NCCOP(=O)([O-])OC[C@H](NC(=O)CCCCCCCCCCCCC)[C@@H](/C=C/CCCCCCCCCCCCC)OC(=O)CCCCCCCCCCC)NC(=O)CCCCCCCCCCCCC.[Na+].[Na+] [ER-805270] | – | 1995 | – |
| CCCCCCCCCCCCC(=O)O[C@H](CCOP(=O)([O-])OCCNC(=O)NCCOP(=O)([O-])OCC[C@@H](OC(=O)CCCCCCCCCCCC)C(CCCCCCCCCC)OC(=O)CCCCCCCCCC)C(CCCCCCCCCC)OC(=O)CCCCCCCCCC.[Na+].[Na+] (stereo partly shown) [ER-805271] | – | 2010 | 5.80 |
| CCCCCCCCCCCCC(=O)N[C@@H](CCOP(=O)([O-])OCCNC(=O)NCCOP(=O)([O-])OCC[C@H](NC(=O)CCCCCCCCCCCC)C(CCCCCCCCCC)OC(=O)CCCCCCCCCC)C(CCCCCCCCCC)OC(=O)CCCCCCCCCC.[Na+].[Na+] (stereo partly shown) [ER-805274] | – | 3218 | 7.85 |
| CCCCCCCCCCCCCC(=O)NC(CCCCCCCCC)CC[C@@H](COP(=O)(O)OCCNC(=O)NCCOP(=O)(O)OC[C@H](CCC(CCCCCCCCC)NC(=O)CCCCCCCCCCCCC)OC(=O)CCCCCCCCCCCCC)OC(=O)CCCCCCCCCCCCC (stereo partly shown) [ER-805328] | – | – | 6.69 |
| CCCCCCCCCCCCCC(=O)N[C@H](CCCC(CCCCCCCC)OC(=O)CCCCCCCCCCCC)COP(=O)(O)OCCNC(=O)NCCOP(=O)(O)OC[C@@H](CCCC(CCCCCCCC)OC(=O)CCCCCCCCCCCC)NC(=O)CCCCCCCCCCCCC (stereo partly shown) [ER-805517] | – | – | 7.15 |
